Assay results reported in patent publication US5393772A, “Use of, and method of treatment using, hydroxycarbazole compounds for inhibition of smooth muscle migration and proliferation” (Boehringer Mannheim Pharmaceuticals Corporation, priority 1993, dated 1995).

Tested on: rat aortic vascular smooth muscle cells
Experiment: PDGF-induced migration of rat aortic vascular smooth muscle cells (modified Boyden chamber, Transwell)
Type: cell-based
Settings: for IC50: Rattus norvegicus, PDGF-induced migration, 24 h at 37° C, by position of OH group
Method: The procedure for assessing vascular smooth muscle cell migration was described previously in Hidaka, Y., Eda, T., Yonemoto, M. & Kamei, T. (1992) Atheroscler. 95, 87-94. Briefly, rat aortic vascular smooth muscle cells (passage 3) were suspended (1×10^6 cells/ml) in serum free DMEM supplemented with 0.2% (w/v) bovine serum albumin (Sigma). Migration assays were performed in modified Boyden chambers using Transwell (Costar, Cambridge, Mass.) cell culture chambers with a polycarbonate 8μm pore size membrane. PDGF was dissolved in DMEM and placed in the lower compartment in the presence, or absence, of compounds of Formula (I) wherein R1, R2, R3, R5, R6 or R8 are independently OH. Vascular smooth muscle cells (5×10^5) were then loaded in the upper compartment and incubated for 24 h at 37° C. in a humidified atmosphere containing 5% CO2. Non-migrated cells on the upper surface were scraped away gently and washed three times with PBS. Filters were fixed in methanol and stained with Giemsa. The number of vascular smooth muscle cells per 100×high power field (HPF) that had migrated to the lower surface of the filters was determined microscopically. Four HPFs were counted per filter. Experiments were performed either in duplicate or triplicate.
PDGF produced concentration-dependent increases in the migration of rat vascular smooth muscle cells with maximal effect obtained at a concentration of 1 nM. […] IC50 values for compounds of Formula (I) wherein R1, R2, R3, R5, R6 or R8 are independently OH were as follows.

Row | Compound | IC50 | concentration of maximal effect on migration (PDGF as chemoattractant, without inhibitor)
1 | COc1ccccc1OCCNCC(O)COc1ccc(O)c2[nH]c3ccccc3c12 (stereo not shown) [R5] | 180 nM | 
2 | PDGF |  | 1 nM
3 | COc1ccccc1OCCNCC(O)COc1cccc2[nH]c3ccc(O)cc3c12 (stereo not shown) [R8] | 360 nM | 
4 | COc1ccccc1OCCNCC(O)COc1c(O)ccc2[nH]c3ccccc3c12 (stereo not shown) [R3] | 200 nM | 

Continued, in another order:

Row | IC50 | Compound | concentration of maximal effect on migration (PDGF as chemoattractant, without inhibitor)
5 | 990 nM | COc1cc(O)ccc1OCCNCC(O)COc1cccc2[nH]c3ccccc3c12 (stereo not shown) [R1] | 
6 | 1720 nM | COc1ccccc1OCCNCC(O)COc1cccc2[nH]c3c(O)cccc3c12 (stereo not shown) [R6] | 
7 | 410 nM | COc1ccc(O)cc1OCCNCC(O)COc1cccc2[nH]c3ccccc3c12 (stereo not shown) [R2] | 
